In brackets after ≈: the same amount, converted by molar mass.
Tests used:
[1] = system: S. aureus RN450; assay: Antibacterial activity MIC, Gram+ (Table 9); assay type: cell-based; details: Staphylococcus aureus, CAMHB, 35° C., approximately 18 hr
Method: (§1) 2 mg of each compound is dissolved in 100 μl of DMSO. The solution is then added to cation-adjusted Mueller Hinton broth (CAMHB), which results in a final compound concentration of 200 μg per ml. The tetracycline compound solutions are diluted to 50 μL volumes, with a test compound concentration of 0.098 μg/ml. Optical density (OD) determinations are made from fresh log-phase broth cultures of the test strains. Dilutions are made to achieve a final cell density of 1×10^6 CFU/ml. At OD=1, cell densities for different genera should be approximately:
(§2) 50 μl of the cell suspensions are added to each well of microtiter plates. The final cell density should be approximately 5×10^5 CFU/ml. These plates are incubated at 35° C. in an ambient air incubator for approximately 18 hr. The plates are read with a microplate reader and are visually inspected when necessary. The MIC is defined as the lowest concentration of the tetracycline compound that inhibits growth.

[2] = system: E. coli 25922; assay: Antibacterial activity MIC, Gram- (Table 9); assay type: cell-based; details: Escherichia coli, CAMHB, 35° C., approximately 18 hr
Method: as §1, §2

[3] = system: collagen-induced arthritis (CIA) in male DBA/1 mice; assay: CIA model, Example 3 (cumulative scores vs untreated controls); assay type: in vivo; details: Mus musculus; Dose 25 mg/kg
Method: The CIA model data were acquired according to the following protocol: • 1. Male DBA/1 mice were anaesthetized by i.p. injection of ketamine/xylazine (1.25 mg/ml:0.25 mg/ml, 100 μl/mouse). • 2. Anaesthetized mice were immunized intradermally at the base of the tail with 0.1 or 0.2 ml of an emulsion composed of 100 or 200 μg bovine type II collagen in Complete Freund's Adjuvant (50 μl/spot x 2 or 4 spots). • 3. At day 21 after the immunization, mice received an intradermal boost of 100 μl of an emulsion composed of 100 μg bovine type II collagen in Incomplete Freund's Adjuvant (50 μl/spot x 2 spots) • 4. After onset of disease symptoms (usually 3-4 days after boost), tetracycline derivatives were administered daily into mice via intraperitoneal or oral routes for 8 to 15 days. Methotrexate (12 mg/kg/day) or dexmethasone (4 mg/kg/day) was used as a control for inflammation suppression. • 5. The disease severity was scored daily for 8-15 days after the appearance of the symptoms. Disease severity was graded as following: • a. Visual clinical score for the presence of inflammation in the fingers/toes of the forepaws and hindpaws: • 1. Erythema and mild swelling confined to the mid-foot (tarsals) or ankle joint • 2. Erythema and mild swelling extending from the ankle to the mid-foot • 3. Erythema and moderate swelling extending from the ankle to the metatarsal joints • 4. Erythema and severe swelling encompassing the ankle, foot, and digits. • b. Clinical swelling score for the presence of paw edema in the forepaws and hindpaws: • Paw thickness was measured daily by an engineering micrometer after isofluorane inhalation or ketamine/xylazine (1.25 mg/ml:0.25 mg/ml, 100 μl/mouse) i.p. injection.
Daily scores and paw swelling measurements for each treatment group of mice were added over the total observation period to obtain a cumulative score. Cumulative scores were compared between untreated controls and treated groups to determine tetracycline-induced inhibition.

Row | SMILES | MIC [1] | MIC [2] | inhibition in vivo at 25 mg/kg [3]
1 | NC(=O)C1=C(O)C[C@@H]2C[C@@H]3Cc4c(-c5ncco5)ccc(O)c4C(=O)C3=C(O)[C@]2(O)C1=O [BB] | 8 µg/mL (≈ 18.2 µM) | > 64 µg/mL | 47%
2 | CN(C)c1cc(C2=CCCCO2)c(O)c2c1C[C@H]1C[C@H]3CC(O)=C(C(N)=O)C(=O)[C@@]3(O)C(O)=C1C2=O [AP] | 4 µg/mL (≈ 8.06 µM) | > 64 µg/mL | 63%
3 | CN(C)c1ccc(-c2cc(N(C)C)c3c(c2O)C(=O)C2=C(O)[C@]4(O)C(=O)C(C(N)=O)=C(O)[C@@H](N(C)C)[C@@H]4C[C@@H]2C3)cc1 [R] | 2 µg/mL (≈ 3.47 µM) | > 64 µg/mL | 32%
4 | CN(C)c1cc(C(=O)N2CCCCC2)c(O)c2c1C[C@H]1C[C@H]3CC(O)=C(C(N)=O)C(=O)[C@@]3(O)C(O)=C1C2=O [Y] | > 64 µg/mL | > 64 µg/mL | 22%

More lines, main results first:

Row | MIC [1] | MIC [2] | SMILES | inhibition in vivo at 25 mg/kg [3]
5 | 0.5 µg/mL (≈ 0.975 µM) | > 64 µg/mL | CN(C)c1cc(C(=O)CC(C)(C)C)c(O)c2c1C[C@H]1C[C@H]3CC(O)=C(C(N)=O)C(=O)[C@@]3(O)C(O)=C1C2=O [AX] | 51%
6 | 1 µg/mL (≈ 2.19 µM) | > 64 µg/mL | CC(C)c1cc(N(C)C)c2c(c1O)C(=O)C1=C(O)[C@]3(O)C(=O)C(C(N)=O)=C(O)C[C@@H]3C[C@@H]1C2 [AU] | 51%
7 | 2 µg/mL (≈ 4.04 µM) | 64 µg/mL (≈ 129 µM) | CN(C)[C@@H]1C(O)=C(C(N)=O)C(=O)[C@@]2(O)C(O)=C3C(=O)c4c(O)ccc(C5=CCNCC5)c4C[C@H]3C[C@@H]12 [L] | 48%
8 | 0.06 µg/mL (≈ 0.118 µM) | 0.5 µg/mL (≈ 0.987 µM) | CN(C)[C@@H]1C(O)=C(C(N)=O)C(=O)[C@@]2(O)C(O)=C3C(=O)c4c(O)ccc(-c5ccc(O)cc5)c4C[C@H]3C[C@@H]12 [N] | 21%
9 | 0.5 µg/mL (≈ 1.04 µM) | > 64 µg/mL | CN(C)c1cc(-c2cnoc2)c(O)c2c1C[C@H]1C[C@H]3CC(O)=C(C(N)=O)C(=O)[C@@]3(O)C(O)=C1C2=O [AB] | 38%
10 | 0.5 µg/mL (≈ 0.927 µM) | > 64 µg/mL | CN(C)c1cc(-c2ccsc2)c(O)c2c1C[C@H]1C[C@H]3[C@H](N(C)C)C(O)=C(C(N)=O)C(=O)[C@@]3(O)C(O)=C1C2=O [P] | 34%
